Measurements published in patent publication EP2057185B1, “POLYMYXIN DERIVATIVES AND USES THEREOF” (Northern Antibiotics Oy, priority 2006, dated 2008).
Bridge positions count the residues as written; N and C are the ends. Square brackets hold non-standard residues; d marks the D form. Peptide text beside a SMILES is read from it. * marks the point of attachment. Octanoyl = CCCCCCCC(=O)*; Dab = NCC[C@H](N)C(=O)O; Abu = CC[C@H](N)C(=O)O

Columns and labels:
E. coli ATCC25922 [1] = tested on: E. coli ATCC25922
Description: (§1) MICs were determined by using E-strips (Biodisk Ltd., Solna, Sweden) according to the manufacturer's instructions.
(§2) The strains originated from ATCC (11 strains), CCUG (11 strains), and NCTC (The National Collection of Type Cultures, Colindale, U.K.; 2 strains). Eight strains (the F-strains) were purchased from Mobidiag Ltd., Helsinki, Finland.

P. vulgaris ATCC13315 = experiment: MIC by E-strips on Mueller-Hinton agar with or without NAB7061 (4 µg/ml); format: cell-based
Description: as §1, §2

S. maltophilia ATCC17444 = experiment: as above; format: cell-based
Description: as §1, §2

A. baumannii ATCC 19606 = experiment: Growth inhibition around wells on LB plates containing rifampin (sensitization); format: cell-based, Acinetobacter baumannii; conditions: well containing 4 µg
[2] = tested on: three strains of A. baumannii; experiment: E-strip MIC, summary over A. baumannii strains of Example 8; format: cell-based, Acinetobacter baumannii; conditions: NAB7061 4 µg/ml
Description: as §1, §2

S. marcescens ATCC8100 = experiment: MIC by E-strips on Mueller-Hinton agar with or without NAB7061 (4 µg/ml); format: cell-based, Serratia marcescens
Description: as §1, §2

[3] = tested on: Ps. aeruginosa ATCC 27853; experiment: Growth inhibition around wells on LB plates containing rifampin (sensitization); format: cell-based, Pseudomonas aeruginosa; conditions: well containing 4 µg
P. aeruginosa CCUG51971 = experiment: MIC by E-strips on Mueller-Hinton agar with or without NAB7061 (4 µg/ml); format: cell-based, Pseudomonas aeruginosa
Description: as §1, §2

P. aeruginosa F58 = experiment: as above; format: cell-based, Pseudomonas aeruginosa
Description: as §1, §2

P. aeruginosa ATCC27853 = experiment: as above; format: cell-based, Pseudomonas aeruginosa
Description: as §1, §2

[4] = tested on: all strains (17) belonging to the group consisting of E. coli, K. oxytoca, E. cloacae, and C. freundii; experiment: E-strip MIC, summary over 17 strains of Example 8; format: cell-based
Description: as §1, §2

E. coli CCUG41424 = experiment: MIC by E-strips on Mueller-Hinton agar with or without NAB7061 (4 µg/ml); format: cell-based, Escherichia coli
Description: as §1, §2

E. coli CCUG41432 = experiment: as above; format: cell-based, Escherichia coli
Description: as §1, §2

E. coli NCTC13351 = experiment: as above; format: cell-based, Escherichia coli
Description: as §1, §2

E. coli CCUG41425 = experiment: as above; format: cell-based, Escherichia coli
Description: as §1, §2

E. coli CCUG41422 = experiment: as above; format: cell-based, Escherichia coli
Description: as §1, §2

K. pneumoniae CCUG45421 = experiment: Growth inhibition around wells on LB agar plates; format: cell-based, Klebsiella pneumoniae; conditions: growth inhibition area around well
Description: (§3) From an overnight-grown culture of IH3080 on LB agar, a suspension of approx. 10^8 cells/ml was prepared in 0.9% NaCl. Aliquots of this suspension were then pipetted on the agar plates and the plates were gently shaken to spread the suspension evenly on the entire surface of the plate. Thereafter, the unabsorbed part of the suspension was removed by using a Pasteur pipette. After the surface had dried, small wells (diameter, 2 mm) were drilled on the plates (five wells per plate) by using a sterile sharp-edged narrow metal tube, single-use pipette tip, and vacuum suction. Samples (4 µl and 10 µl) of the peptide solution in 0.9% NaCl (at concentrations of 1 µg/ml and 0.1 µg/ml) were then pipetted to the wells and the sample fluids were allowed to absorb. Controls included 0.9% NaCl solution without the compound to be tested. The plates were then incubated for 18 h at 37°C whereafter the diameters of growth inhibition zones around each well were measured; the diameter of the well itself was […]. Finally, the diameters were converted to surface areas of growth inhibition (in square mm).
(§4) The susceptibility of eleven Gram-negative bacterial strains (nine different species) to NAB734 and polymyxin B was compared by using the susceptibility determination method described in Example 2. The strains included those belonging to the species of Serratia marcescens and Proteus mirabilis, both species generally known to be resistant to polymyxin. Furthermore, the susceptibility determination was also performed by using the Gram-positive bacterium, Staphylococcus aureus, also generally known to be polymyxin-resistant. Ten of the strains originated from ATCC (American Type Culture Collection, Manassas, VA, U.S.A.), and one from CCUG (Culture Collection of University of Gothenburg, Sweden). The source of E. coli IH3080 has been described in Example 2. Polymyxin B sulfate was from Sigma-Aldrich (St. Louis, MO, USA).

K. pneumoniae ATCC13883 = experiment: Growth inhibition around wells on LB agar plates; format: cell-based, Klebsiella pneumoniae; conditions: growth inhibition area around well
Description: as §3, §4

C. freundii ATCC8090 = experiment: Growth inhibition around wells on LB agar plates; format: cell-based, Citrobacter freundii; conditions: growth inhibition area around well
Description: as §3
(§5) The susceptibility of eleven Gram-negative bacterial strains (nine different species) to NAB734 and polymyxin B was compared by using the susceptibility determination method described in Example 2. […]

P. mirabilis ATCC29906 = experiment: Growth inhibition around wells on LB agar plates; format: cell-based, Proteus mirabilis; conditions: growth inhibition area around well
Description: as §3, §5

E. coli ATCC25922 [5] = experiment: Growth inhibition around wells on LB agar plates; format: cell-based, Escherichia coli; conditions: growth inhibition area around well
Description: as §3, §5

CCCCCCCC(=O)N[C@H](C(=O)N[C@@H](CC)C(=O)N[C@H]1CCNC(=O)[C@H]([C@@H](C)O)NC(=O)[C@H](CCN)NC(=O)[C@H](CCN)NC(=O)[C@H](CC(C)C)NC(=O)[C@@H](Cc2ccccc2)NC(=O)[C@H](CCN)NC1=O)[C@@H](C)O [NAB 7061, OA-Thr-Abu-cy[Dab-Dab-DPhe-Leu-Dab-Dab-Thr-]] (Octanoyl-T[Abu][Dab][Dab][dF]L[Dab][Dab]T; lactam 3-C)
MIC (µg/ml) of clarithromycin in the presence of 4 µg/ml of NAB 7061 (E. coli ATCC25922 [1]): 0,094 - 0,125 µg/ml
MIC (µg/ml) of rifampin in the presence of 4 µg/ml of NAB 7061 (E. coli ATCC25922 [1]): 0,01 - 0,047 µg/ml
MIC (µg/ml) of rifampin in the presence of 4 µg/ml of NAB 7061 (P. vulgaris ATCC13315): 1-1,5 µg/ml
Sensitization factor to clarithromycin (P. vulgaris ATCC13315; 4 µg/ml of NAB 7061): <2
Sensitization factor to rifampin (P. vulgaris ATCC13315; 4 µg/ml of NAB 7061): <2
Antibacterial activity, rifampin 0 (A. baumannii ATCC 19606; no rifampin (control)): 0 square millimeters
Antibacterial activity, rifampin 0.1 (A. baumannii ATCC 19606; rifampin 0.1 µg/ml): 28 square millimeters
Antibacterial activity, rifampin 0.3 (A. baumannii ATCC 19606; rifampin 0.3 µg/ml): 50 square millimeters
resulting MIC values to clarithromycin [2]: ≤ 0.5 µg/mL
resulting MIC values to rifampin [2]: ≤ 0.125 µg/mL
Sensitization factor to clarithromycin (S. marcescens ATCC8100; 4 µg/ml of NAB 7061): <2
Sensitization factor to rifampin (S. marcescens ATCC8100; 4 µg/ml of NAB 7061): <2
Antibacterial activity, rifampin 0 ([3]; no rifampin (control)): 0 square millimeters
Antibacterial activity, rifampin 0.1 ([3]; rifampin 0.1 µg/ml): 0 square millimeters
Antibacterial activity, rifampin 0.3 ([3]; rifampin 0.3 µg/ml): 0 square millimeters
MIC (µg/ml) of rifampin in the presence of 4 µg/ml of NAB 7061 (P. aeruginosa CCUG51971): >32 µg/mL
Sensitization factor to clarithromycin (P. aeruginosa CCUG51971; 4 µg/ml of NAB 7061): <2
Sensitization factor to rifampin (P. aeruginosa CCUG51971; 4 µg/ml of NAB 7061): <2
MIC (µg/ml) of rifampin in the presence of 4 µg/ml of NAB 7061 (P. aeruginosa F58): >32 µg/mL
Sensitization factor to clarithromycin (P. aeruginosa F58; 4 µg/ml of NAB 7061): <2
Sensitization factor to rifampin (P. aeruginosa F58; 4 µg/ml of NAB 7061): <2
MIC of rifampin in the presence of NAB7061 (4 µg/ml) [4]: ≤ 0.125 µg/mL

Polymyxin B
Antibacterial activity 4 µg (K. pneumoniae CCUG45421; 4 µg): 95 square millimeters
Antibacterial activity 10 µg (K. pneumoniae CCUG45421; 10 µg): 133 square millimeters
Antibacterial activity 4 µg (K. pneumoniae ATCC13883; 4 µg): 79 square millimeters
Antibacterial activity 10 µg (K. pneumoniae ATCC13883; 10 µg): 113 square millimeters
Antibacterial activity 4 µg (C. freundii ATCC8090; 4 µg): 95 square millimeters
Antibacterial activity 10 µg (C. freundii ATCC8090; 10 µg): 154 square millimeters
Antibacterial activity 4 µg (P. mirabilis ATCC29906; 4 µg): 0 square millimeters
Antibacterial activity 10 µg (P. mirabilis ATCC29906; 10 µg): 0 square millimeters
Antibacterial activity 4 µg (E. coli ATCC25922 [5]; 4 µg): 95 square millimeters
Antibacterial activity 10 µg (E. coli ATCC25922 [5]; 10 µg): 133 square millimeters
